Test results taken from patent US9527830B2 (Merck Sharp & Dohme Corp., priority 2011, dated 2016).

Molecular target: T1, hROMK1 (Kir1.1) (Homo sapiens, UniProt P48048)
T1 construct: expressed in transfected cells
T1 sequence (P48048 1-391): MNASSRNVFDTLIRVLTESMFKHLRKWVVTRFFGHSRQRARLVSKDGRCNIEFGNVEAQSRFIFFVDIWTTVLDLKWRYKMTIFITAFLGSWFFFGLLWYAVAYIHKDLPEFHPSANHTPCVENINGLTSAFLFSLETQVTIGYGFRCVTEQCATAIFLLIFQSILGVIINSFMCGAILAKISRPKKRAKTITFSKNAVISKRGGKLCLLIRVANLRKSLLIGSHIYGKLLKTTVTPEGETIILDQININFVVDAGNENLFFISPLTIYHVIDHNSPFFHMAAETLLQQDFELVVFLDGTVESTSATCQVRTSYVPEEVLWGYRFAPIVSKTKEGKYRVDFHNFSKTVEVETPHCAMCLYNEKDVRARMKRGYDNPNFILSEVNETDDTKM
Assay: ^86Rb^+ Efflux Assay
Type: cell-based
Details: CHO-DHFR- cells stably expressing hROMK1; potency ranges
Method: Several assays may be used to measure functional inhibition of the ROMK channel by compounds of the instant invention. One primary assay that can be used is a functional ^86Rb^+ efflux assay that measures the ability of ROMK to permeate ^86Rb^+, in the absence or presence of test compound. Under control conditions, cells loaded with ^86Rb^+ and incubated in Rb^+-free medium display a time-dependent efflux of the isotope, the rate of which depends on number of functional channels. When cells are incubated in the presence of a channel inhibitor, efflux of ^86Rb^+ is prevented in a concentration-dependent manner, and IC50 values of inhibition by compounds can be accurately determined. This assay has been established with cell lines expressing either human, rat or dog ROMK channels, and can operate in 96- or 384-well format. Importantly, the human, rat, and dog ^86Rb^+ efflux assays can be carried out in the presence of up to 100% serum allowing, therefore, an accurate estimation of the effect of protein binding on the inhibitory activity of compounds of interest. Another ROMK functional assay makes use of the ability of thallium to permeate through open ROMK channels and increase the fluorescence of a dye previously loaded into the cells. Under control conditions, cells loaded with dye and exposed to thallium-containing medium display a time-dependent increase in fluorescence, the rate of which depends on number of functional channels. When cells are incubated in the presence of a channel inhibitor, the increase in fluorescence is attenuated in a concentration-dependent manner, and IC50 values of inhibition by compounds can be accurately determined. This assay has been established with cell lines expressing either human, or rat ROMK channels, and operates in 384-well format. Another assay for evaluation of the compounds of the instant invention and for evaluation of mechanism of action of compounds of Formula I relies on the measurement of the electrical current that is generated as potassium permeates through the channel. For these electrophysiological experiments, three different platforms, IonWorks, QPatch, or manual patch clamp, are used, depending on the experimental protocol under consideration. IonWorks operates in a 384-well format and allows accurate determination of IC50 values for inhibitors.
CHO-DHFR-cells stably expressing hROMK1 (Kir1.1) were grown at 37° C. in a 10% CO2 humidified incubator in Iscove's Modified Dulbecco's Medium (Gibco 12440) supplemented with HT Supplement, Penicillin/Streptomycin/Glutamine, G418 (500 μg/ml) and 10% FBS. Cells were seeded in Sterile and Tissue Culture Treated Packard CulturPlate White Opaque Microplates at a concentration of 5.0E5-7.0E5 cells/ml—PerkinElmer 6005680 (96-well); Corning 3707 (384 well) in complete media containing 1.5 μCi/ml Rubidium-86. Cells were incubated in 37° C.-10% CO2 incubator overnight. On the day of the experiment, the media was removed and cells washed with low K assay buffer. ^86Rb^+ efflux was initiated after addition of assay buffer±test compound followed by 35 min incubation at room temperature. ROMK-sensitive component of efflux was defined in the presence of 10 mM BaCl2. Assay buffer was removed and transferred to a plate and cells were solubilized in the presence of SDS. Radioactivity associated with assay and cell plate was determined.
• 1. Removed cell media and washed cells with low K assay buffer (126.9 mM NaCl, 4.6 mM KCl, 2 mM CaCl2, 1 mM MgCl2, 10 mM Hepes/NaOH; pH 7.4) • 200 μl for 96-well plate; 70 μl for 384-well plate • 2. Added assay buffer (121.5 mM NaCl, 10 mM KCl, 2 mM CaCl2, 1 mM MgCl2, 10 mM Hepes/NaOH; pH 7.4)±test compound to cells • 100 μl for 96-well plate; 50 μl for 384-well plate • 3. Incubated at ambient temperature (22-24° C.) for 35 min • 4.

IC50 [nM] | Compound
≤ 200 | O=C(Cc1ccc(-n2cnnn2)cc1)N1CCC(Sc2ccc([N+](=O)[O-])cc2)CC1 [Example 12, 1-{4-[(4-Nitrophenyl)sulfanyl]piperidin-1-yl}-2-[4-(1H-tetrazol-1-yl)phenyl]ethanone]
≤ 200 | O=C(Cc1ccc(-n2cnnn2)cc1)N1CCC(/C=C/c2ccc3nonc3c2)CC1 [Example 5]
≤ 500 | N#Cc1cc(C#CC2(O)CCN(C(=O)Cc3ccc(-n4cnnn4)cc3)CC2)ccc1F [Example 10, 2-Fluoro-5-[(4-hydroxy-1-{[4-(1H-tetrazol-1-yl)phenyl]acetyl}piperidin-4-yl)ethynyl]benzonitrile]
≤ 500 | COc1cc(CC(=O)N2CCC(/C=C/c3ccc4c(c3)COC4=O)CC2)ccc1C#N [Example 52, 2-Methoxy-4-(2-oxo-2-(4-[(E)-2-(1-oxo-1,3-dihydro-2-benzofuran-5-yl)ethenyl]piperidin-1-yl}ethyl]benzonitrile]
≤ 500 | O=C1OCc2cc(/C=C/C3CCN(C(=O)Cc4ccc5c(c4)COC5=O)CC3)ccc21 [Example 47, 5-[(E)-2-{1-[(1-Oxo-1,3-dihydro-2-benzofuran-5-yl)acetyl]piperidin-4-}ethenyl]-2-benzofuran-1(3H)-one]
≤ 200 | CC1Cc2cc(CCC3CCN(C(=O)Cc4ccc(-n5cnnn5)cc4)CC3)ccc2C(=O)O1 (centres unmarked) [Example 80, 3-Methyl-6-[2-(1-{[4-(1H-tetrazol-1-yl)phenyl]acetyl}piperidin-4-yl)ethyl]-3,4-dihydro-1H-isochromen-1-one]
≤ 200 | O=C1OCc2cc(CCC3CCN(C(=O)C4CCc5cc(-n6cnnn6)ccc54)CC3)ccc21 (centres unmarked) [Example 72, 5-[2(1-{[5(1H-Tetrazol-1-yl)-2,3-dihydro-1H-inden-yl]carbonyl}piperidin-4-yl)ethyl]-2-benzofuran-1(3H)-one]
≤ 500 | O=C1OCc2c1ccc(/C=C/C1CCN(C(=O)Cc3ccc(-n4cnnn4)cc3)CC1)c2Br [Example 68, 4-Bromo-5-[(E)-2-(1-{[4-(1H-tetrazol-1-yl)phenyl]acetyl}piperidin-4-yl)ethenyl]-2-benzofuran-1(3H)-one]
≤ 500 | O=C1OCc2cc(SC3CCN(C(=O)Cc4ccc(-n5cnnn5)cc4)CC3)ccc21 [Example 51, 5-[(1-{[4-(1H-Tetrazol-1-yl)phenyl]acetyl}piperidin-4-yl)sulfanyl]-2-benzofuran-1(3H)-one]
≤ 200 | O=C1OCc2c1ccc(CCC1CCN(C(=O)Cc3ccc(-n4cnnn4)cc3)CC1)c2F [Example 57, 4-Fluoro-5-[2-(1-{[4-(1H-tetrazol-1-yl)phenyl]acetyl}piperidin-4-yl)ethyl]-2-benzofuran-1(3H)-one]
≤ 200 | O=C1OCc2cc(OCC3CCN(C(=O)Cc4ccc(-n5cnnn5)cc4)CC3)ccc21 [Example 55, 5-[(1-{[4-(1H-Tetrazol-1-yl)phenyl]acetyl}piperidin-4-yl)methoxy]-2-benzofuran-1(3H)-one]
≤ 200 | O=C1OCCc2cc(CCC3CCN(C(=O)Cc4ccc(-n5cnnn5)cc4)CC3)ccc21 [Example 65, 6-[2-(1-{[4-(1H-tetrazol-1-yl)phenyl]acetyl}piperidin-4-yl)ethyl]-3,4-dihydro-1H-isochromen-1-one]
≤ 500 | Cc1c(C#CC2(O)CCN(C(=O)Cc3ccc(-n4cnnn4)cc3)CC2)ccc(F)c1C#N [Example 36, 6-Fluoro-3-[(4-hydroxy-1-{[4-(1H-tetrazol-1-yl)phenyl]acetyl}piperidin-4-yl)ethynyl]-2-methylbenzonitrile]
≤ 500 | O=C1OCc2cc(CCC3CCN(C(=O)Cc4ccc5c(c4)COC5=O)CC3)ccc21 [Example 50, 5-(2-{1-[(1-Oxo-1,3-dihydro-2-benzofuran-5-yl)acetyl]piperidin-4-yl}ethyl)-2-benzofuran-1(3H)-one]
≤ 200 | COc1cc(CCN2CCC(CCc3ccc4c(c3)COC4=O)CC2)ccc1C#N [Example 71, 2-Methoxy-4-(2-{4-[2-(1-oxo-1,3-dihydro-2-benzofuran-5-yl)ethyl]piperidin-1-yl}ethyl)benzonitrile]
≤ 500 | COc1cc(CC(=O)N2CCC(CCc3ccc4c(c3)CCOC4=O)CC2)c(F)cc1C#N [Example 67, 5-Fluoro-2-methoxy-4-(2-oxo-2-{4-[2-(1-oxo-3,4-dihydro-1H-isochromen-6-yl)ethyl]piperidin-1-yl}ethyl)benzonitrile]
≤ 200 | N#Cc1cc(CCC2(O)CCN(CCc3ccc4c(c3)COC4=O)CC2)ccc1F [Example 30, 2-Fluoro-5-(2-{4-hydroxy-1-[2-(1-oxo-1,3-dihydro-2-benzofuran-5-yl)ethyl]piperidin-4-yl}ethyl)benzonitrile]
≤ 200 | O=C1OCc2cc(/C=C/C3CCN(C(=O)Cc4ccc(-n5cnnn5)cc4)CC3)ccc21 [Example 6]
≤ 500 | O=C1OCc2cc(CCC3CCN(C(=O)Cc4ccc(-n5cnnn5)cc4)CC3)ccc21 [Example 7, 5-[2-(1-{[4-(1H-Tetrazol-1-yl)phenyl]acetyl}piperidin-4-yl)ethyl]-2-benzofuran-1(3H)-one]
≤ 500 | O=C(Cc1ccc(-n2cnnn2)cc1)N1CCC(O)(CCc2ccc3nonc3c2)CC1 [Example 8, 1-{4-[2-(2,1,3-Benzoxadiazol-5-yl)ethyl]-4-hydroxypiperidin-1-yl}-2-[4-(1H-tetrazol-1-yl)phenyl]ethanone]
≤ 500 | COc1cc(CC(=O)N2CCC(CCc3ccc4c(c3)COC4=O)CC2)ccc1C#N [Example 53, 2-Methoxy-4-(2-oxo-2-(4-[2-(1-oxo-1,3-dihydro-2-benzofuran-5-yl)ethyl]piperidin-1-yl}ethyl]benzonitrile]
≤ 200 | O=C1OCCc2cc(CCC3CCN(C(=O)C4CCc5cc(-n6cnnn6)ccc54)CC3)ccc21 (centres unmarked) [Example 66]

Compound | IC50 [nM]
O=[N+]([O-])c1ccc(/C=C/C2CCN(CCc3ccc([N+](=O)[O-])cc3)CC2)cc1 [Example 2, 4-[(E)-2-(4-Nitrophenyl)ethenyl]-1-[2-(4-nitrophenyl)ethyl]piperidine] | ≤ 200
